Laboratory results: patent US7645793B2, “Injectable pharmaceutical formulations” (Shionogi & Co., Ltd., priority 2001, dated 2010)

Tests used:
Assay type in all cases: physicochemical
[1] = Storage stability of lyophilized formulation, HPLC of content and decomposed materials
Protocol: After the formulation as prepared according to Example 1 was stored at 50° C. for 2 months, the amounts of decomposed materials produced by hydrolysis were determined and compared. Typical decomposed materials are:
The relationship of the contents of compound 1, the amounts of the decomposed materials, and the added amounts of D-mannitol comprised in between the formulation before the storage and that after the storage at 50° C. for 2 months, is shown in Table 2. The determination was conducted using high performance liquid chromatography (HPLC). The determination conditions of HPLC are as shown below: • Device: Waters 600E,484,712 wisp,74 1,FD20A • Column: J'sphere ODS-L80, S-4μm, 80A 150×4.6 mmφ • Moving phase: water/acetonitrile/acetic acid=100/100/1 • Flow rate: 1.0 ml/min • Injected volume: • 20 μL (at the time for determination of impure materials) • 10 μL (at the time for determination of compound 1) • Detection wavelength • 275 nm • Detection sensibility (AUFS): • 0.64 (at the time for determination of impure materials) • 0.20 (at the time for determination of compound 1) • Solvent for dilution of samples: • water/acetonitrile/acetic acid=100/100/1 • Concentration of samples • 1 mg/ml (at the time for determination of impure materials) • 60.0 μg/ml (at the time for determination of compound 1)

[2] = Ross-Miles Foaming Test (foaming vs pH); conditions: 0.1% w/w in water for injection, 25° C., ISO 696-1975
Protocol: Compound 1 was dissolved in a water for injection (0.1% w/w), and the solution was quantitatively determined for foaming by Ross-Miles Foaming Test. Ross-Miles Foaming Test was conducted according to the method as defined in International Standard ISO 696-1975 except that the determination temperature was set 25° C.

[3] = Determination of surface tension by Wilhelmy method
Protocol: A compound to be determined that has been weighed is dissolved or suspended in a defined amount of a distilled water. As such, samples of aqueous solutions to be tested containing the compound at various concentrations are prepared, and each of the solutions is adjusted to be 50 ml aliquots.
Surface tension-measuring device (Kruess Inc., Type K12) and the personal computer for control and analysis are started, and a software for determining surface tension (Kruess Inc., K122) is launched. The determination site of the device is subjected to the circulation of the water from a thermostatic chamber to keep the temperature constant at 25° C. […]
(§1) Forty ml of a distilled water is poured into the vessel that have been washed, and the vessel is placed into the surface tension-measuring device. […] In this condition, surface tensions are determined. […] When the value of surface tension as determined one minute later is almost constant, then the value is recorded and the determination is stopped.
as §1, with “After the blank determination, 40” for “Forty”, “sample of aqueous solutions” for “distilled water”, “stopped. […]” for “stopped.”

[4] = D-mannitol 0% of the weight of compound 1
[5] = D-mannitol 25% of the weight of compound 1
[6] = D-mannitol 50% of the weight of compound 1
[7] = D-mannitol 100% of the weight of compound 1

In the case of CC1(C)CC[C@]2(C(=O)[O-])CC[C@]3(COC(=O)/C=C/c4cc(O)ccc4NC(=O)/C=C/C(=O)[O-])C(=CC[C@@H]4[C@@]5(C)CCC(=O)C(C)(C)[C@@H]5CC[C@]43C)[C@@H]2C1.[Na+].[Na+] [compound 1], the “Content of compound 1 (after storage at 50° C. for 2 months)” value (from here on “Content”) [1, 4] is reported as 97.1 ± 0.1%, the “amount of Other related compounds, After storage at 50° C. for 2 months” value (“amount of Other related compounds … for 2 months” below) [1, 4] is reported as 0.66 ± 0.14% and the “amount of Other related compounds, Before storage” value [1, 4] is reported as 0.32 ± 0.02%. For the same compound, the “amount of decomposed material compound A, After storage at 50° C. for 2 months” value [1, 4] was 1.71 ± 0.08%, the “amount of decomposed material compound A, Before storage” value [1, 4] was 0.26 ± 0.02% and the “Content” value [1, 5] was 97.9 ± 0.4%. The “amount of Other related compounds … for 2 months” value [1, 5] was 0.87 ± 0.02%, the “amount of Other related compounds, Before storage” value [1, 5] was 0.33 ± 0.03% and the “amount of decomposed material compound A, After storage at 50° C. for 2 months” value [1, 5] was 0.44 ± 0.01%. For the same compound, the “amount of decomposed material compound A, Before storage” value [1, 5] was 0.13 ± 0.01%, the “Content” value [1, 6] was 98.0 ± 0.1% and the “amount of Other related compounds … for 2 months” value [1, 6] was 0.89 ± 0.05%. For the same compound, the “amount of Other related compounds, Before storage” value [1, 6] was 0.32 ± 0.02%, the “amount of decomposed material compound A, After storage at 50° C. for 2 months” value [1, 6] was 0.24 ± 0.01% and the “amount of decomposed material compound A, Before storage” value [1, 6] was 0.11 ± 0.01%. For the same compound, the “Content” value [1, 7] was 98.3 ± 0.1%, the “amount of Other related compounds … for 2 months” value [1, 7] was 1.24 ± 0.05% and the “amount of Other related compounds, Before storage” value [1, 7] was 0.31 ± 0.01%. For the same compound, the “amount of decomposed material compound A, After storage at 50° C. for 2 months” value [1, 7] was 0.23 ± 0.02%, the “amount of decomposed material compound A, Before storage” value [1, 7] was 0.11 ± 0.01% and the “foaming by Ross-Miles Foaming Test in relation to pH” value [2] was “the foaming was inhibited depending on the increase in pH”. For the same compound, the surface tension ([3]; 37.6 mM solution of compound 1 in water, 25° C., Wilhelmy method) was 53.9±0.2 mN/m and the “decrease in surface tension, pH 9.5 vs pH 7 to 7.5” value ([3]; aqueous solutions at various concentrations, pH 9.5 adjusted with sodium hydroxide, FIG. 1) was “the decrease in the surface tension is inhibited at pH 9.5 more than that at pH7 to 7.5”.
